For 7 compounds, IC50 results are on record in PubChem BioAssay AID586 (The Scripps Research Institute Molecular Screening Center, 2007).

Calls of active or inactive are those of the source. The rule behind the calls is not given here.

The assay deals with antigen receptor-induced NF-kappaB activation reporter, cells. As to the kind of experiment: NF-kB reporter activation blockers, potency – cell-based, dose response (AID 586).
The IC50 is the concentration that inhibits the measured activity by half. Regarding `Cc1oc(-c2ccccc2Cl)nc1CSCC(=O)N1CCCC1`, the IC50 was 1160 nM. With `c1ccc(-c2cccc(-c3ccccn3)n2)nc1`, the half-inhibitory concentration (IC50) is 1090 nM.

On to `Oc1c(C(Nc2nc3ccccc3s2)c2ccco2)ccc2cccnc12` (configuration not stated), for which the IC50 is 1710 nM. Next, `Cc1oc2cc3c(C(=O)OCCN(C)C)c(C)oc3cc2c1C(=O)OCCN(C)C`: 438 nM. As for `COc1ccc(-n2ncc3c(N4CCCCC4)ncnc32)cc1`, the figure is 2660 nM. As for `CNC(=O)CCc1nc(-c2ccc(C(C)(C)C)cc2)no1`, the figure is 17000 nM (inactive); as for `CCOc1ccc(-c2cc(C(=O)O)c3ccccc3n2)c(OCC)c1`, 4600 nM.
